Results published in patent US20090111801A1, “SUBSTITUTED PYRAZINONE DERIVATIVES FOR USE AS A MEDICINE” (Janssen Pharmaceutica N.V., priority 2006, published 2009).

Key:
hα2C receptor = target: T1, hα2C receptor (Homo sapiens, UniProt P18825); experiment: Radioligand binding experiment for α2C-adrenoceptor ([3H]raulwolscine, CHO cell membranes); conditions: [3H]raulwolscine binding; for IC50: read-out: h-α2C pIC50 (converted)
T1 construct: expressed in transfected cells; host or cells: CHO cells, stably transfected; membrane preparation
T1 sequence (P18825 1-462): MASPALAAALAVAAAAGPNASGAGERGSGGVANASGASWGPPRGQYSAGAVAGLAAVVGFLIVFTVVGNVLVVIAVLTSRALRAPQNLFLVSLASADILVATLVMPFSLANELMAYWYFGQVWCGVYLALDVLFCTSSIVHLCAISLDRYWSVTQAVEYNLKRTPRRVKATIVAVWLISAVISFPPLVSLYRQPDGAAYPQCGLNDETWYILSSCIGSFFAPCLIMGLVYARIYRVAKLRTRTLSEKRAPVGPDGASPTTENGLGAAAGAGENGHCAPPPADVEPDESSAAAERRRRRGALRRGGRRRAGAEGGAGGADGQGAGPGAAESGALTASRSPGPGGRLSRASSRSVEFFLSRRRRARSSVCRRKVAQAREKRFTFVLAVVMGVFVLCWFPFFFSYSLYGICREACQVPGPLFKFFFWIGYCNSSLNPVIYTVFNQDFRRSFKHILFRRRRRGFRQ
Description: (§1) The interaction of a compound of Formula (I) with α2-adrenoceptor receptors was assessed in in vitro radioligand binding experiments. In general, a low concentration of a radioligand with a high binding affinity for a particular receptor or transporter is incubated with a sample of a tissue preparation enriched in a particular receptor or transporter or with a preparation of cells expressing cloned human receptors in a buffered medium. During the incubation, the radioligand binds to the receptor or transporter. When equilibrium of binding is reached, the receptor bound radioactivity is separated from the non-bound radioactivity, and the receptor- or transporter-bound activity is counted. The interaction of the test compounds with the receptor is assessed in competition binding experiments. Various concentrations of the test compound are added to the incubation mixture containing the receptor- or transporter preparation and the radioligand. The test compound in proportion to its binding affinity and its concentration inhibits binding of the radioligand. The radioligand used for hα2A and hα2C receptor binding was [^3H]-raulwolscine.
(§2) CHO cells, stabile transfected with human adrenergic-α2A and α2C receptor cDNA, were cultured in Dulbecco's Modified Eagle's Medium (DMEM)/Nutrient mixture Ham's F12 (ratio 1:1)(Gibco, Gent-Belgium) supplemented with 10% heat inactivated fetal calf serum (Life Technologies, Merelbeke-Belgium) and antibiotics (100 IU/ml penicillin G, 100 μg/ml streptomycin sulphate, 110 μg/ml pyruvic acid and 100 μg/ml L-glutamine). One day before collection, cells were induced with 5 mM sodiumbutyrate. Upon 80-90% of confluence, cells were scraped in phosphate buffered saline without Ca^2+ and Mg^2+ and collected by centrifugation at 1500×g for 10 minutes. The cells were homogenised in Tris-HCl 50 mM using an Ultraturrax homogenizer and centrifuged for 10 minutes at 23,500×g. The pellet was washed once by resuspension and rehomogenization and the final pellet was resuspended in Tris-HCl, divided in 1 ml aliquots and stored at −70° C.
(§3) Membranes were thawed and re-homogenized in incubation buffer (glycylglycine 25 mM, pH 8.0). […] Filters were rinsed extensively with ice-cold rinsing buffer (Tris-HCl 50 mM pH 7.4). Filter-bound radioactivity was determined by scintillation counting in a Topcount (Packard, Meriden, Conn.) and results were expressed as counts per minute (cpm). Non-specific binding was determined in the presence of 1 μM oxymetazoline for the hα2A receptor and 1 μM spiroxatrine for hα2C receptor.
(§4) Data from assays in the presence of compound were calculated as a percentage of total binding measured in the absence of test compound. Inhibition curves, plotting percent of total binding versus the log value of the concentration of the test compound, were automatically generated, and sigmoidal inhibition curves were fitted using non-linear regression. The pIC50 values of test compounds were derived from individual curves.

hα2A receptor = target: T2, hα2A receptor (Homo sapiens, UniProt P08913); experiment: Radioligand binding experiment for α2A-adrenoceptor ([3H]raulwolscine, CHO cell membranes); conditions: [3H]raulwolscine binding; for IC50: read-out: h-α2A pIC50 (converted)
T2 construct: expressed in transfected cells; host or cells: CHO cells, stably transfected; membrane preparation
T2 sequence (P08913 1-465): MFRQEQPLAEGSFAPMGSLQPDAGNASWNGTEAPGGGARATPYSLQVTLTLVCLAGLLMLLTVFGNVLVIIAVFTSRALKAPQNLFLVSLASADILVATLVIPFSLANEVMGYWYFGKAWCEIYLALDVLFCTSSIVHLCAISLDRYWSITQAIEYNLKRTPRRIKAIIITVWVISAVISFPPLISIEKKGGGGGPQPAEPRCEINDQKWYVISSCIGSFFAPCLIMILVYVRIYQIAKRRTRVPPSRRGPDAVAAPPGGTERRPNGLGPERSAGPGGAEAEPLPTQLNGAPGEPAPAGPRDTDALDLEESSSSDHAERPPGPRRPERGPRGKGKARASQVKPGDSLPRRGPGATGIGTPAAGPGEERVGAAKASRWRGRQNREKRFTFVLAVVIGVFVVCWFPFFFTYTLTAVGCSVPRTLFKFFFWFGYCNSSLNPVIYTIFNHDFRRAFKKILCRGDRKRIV
Description: as §1, §2, §3, §4

5HT-Transporter = target: T3, 5HT-Transporter (Homo sapiens, UniProt P31645); experiment: Binding experiment for the 5HT-transporter ([3H]paroxetine, human platelet membranes); conditions: [3H]paroxetine 0.5 nM; for IC50: read-out: h-5HTT pIC50 (converted)
T3 construct: Human platelet membranes (Oceanix Biosciences Corporation, Hanover, Md., USA) were thawed; tissue Oceanix Biosciences Corporation, Hanover, Md., USA; host or cells: human platelet membranes
T3 sequence (P31645 whole entry): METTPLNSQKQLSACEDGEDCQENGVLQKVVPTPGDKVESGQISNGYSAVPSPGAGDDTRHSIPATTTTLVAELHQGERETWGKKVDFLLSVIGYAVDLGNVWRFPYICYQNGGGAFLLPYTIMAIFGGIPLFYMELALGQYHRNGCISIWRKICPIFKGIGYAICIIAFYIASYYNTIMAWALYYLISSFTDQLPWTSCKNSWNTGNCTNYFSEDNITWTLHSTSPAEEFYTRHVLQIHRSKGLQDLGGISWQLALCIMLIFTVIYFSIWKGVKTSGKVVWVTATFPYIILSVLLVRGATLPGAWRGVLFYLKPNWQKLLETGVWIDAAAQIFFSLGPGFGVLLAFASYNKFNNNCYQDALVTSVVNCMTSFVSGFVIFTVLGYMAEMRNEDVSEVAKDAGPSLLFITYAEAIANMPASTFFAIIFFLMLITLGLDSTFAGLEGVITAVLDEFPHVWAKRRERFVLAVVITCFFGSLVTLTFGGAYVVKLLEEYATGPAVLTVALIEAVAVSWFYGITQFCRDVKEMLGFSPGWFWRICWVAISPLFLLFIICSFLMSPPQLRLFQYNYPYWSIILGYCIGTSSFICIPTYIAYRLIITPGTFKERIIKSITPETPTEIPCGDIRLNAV
Description: as §1
Human platelet membranes (Oceanix Biosciences Corporation, Hanover, Md., USA) were thawed, diluted in buffer (Tris-HCl 50 mM, 120 mM NaCl and 5 mM KCl) and quickly (max 3 s) homogenised with an Ultraturrax homogenizer. […] Incubation was stopped by rapid filtration of the incubation mixture over GF/B filters, pre-wetted with 0.1% polyethyleneamine, using a Filtermate196 harvester (Packard, Meriden, Conn.). Filters were rinsed extensively with ice-cold buffer and radioactivity on the filters was counted in a Topcount liquid scintillation counter (Packard, Meriden, Conn.). Data were expressed as cpm. Imipramine (at 1 μM final concentration) was used to determine the non-specific binding.
as §4

| Structure (SMILES) | IC50 (hα2C receptor) [nM] | IC50 (hα2A receptor) [nM] | IC50 (5HT-Transporter) [nM] | h-α2C pIC50 (hα2C receptor) | h-α2A pIC50 (hα2A receptor) | h-5HTT pIC50 (5HT-Transporter) |
| --- | --- | --- | --- | --- | --- | --- |
| C/C(=C\c1ccccc1)CN1CCC(Nc2nccn(CCCN(Cc3ccccc3)S(C)(=O)=O)c2=O)CC1 [1-169] | 10 | 200 | 316 | – | – | – |
| C/C(=C\c1ccccc1)CN1CCC(Nc2nccn(Cc3cnc(C)s3)c2=O)CC1 [6-8] | 25.1 | 158 | 3980 | – | – | – |
| C/C(=C\c1ccccc1)CN1CCC(Nc2nccn(Cc3ccc(NCCN(C)C)cc3)c2=O)CC1 [1-104] | 2.51 | 12.6 | 200 | – | – | – |
| C/C(=C\c1ccccc1)CN1CCN(c2nccn(Cc3ccc4ccccc4c3)c2=O)CC1 [12-7] | 126 | 126 | 1000 | – | – | – |
| C/C(=C\c1ccccc1)CN1CCC(Nc2nccn(CCCNCc3ccccc3)c2=O)CC1 [1-46] | – | 39.8 | 316 | – | – | – |
| C/C(=C\c1ccccc1)CN1CCC(Nc2nccn(CCCN(Cc3ccccc3)Cc3ccccc3)c2=O)CC1 [1-71] | 5.01 | 100 | 398 | – | – | – |
| C/C(=C\c1ccccc1)CN1CCC(Nc2nccn(CCCN(C)C(=O)Nc3ccccc3)c2=O)CC1 [1-121] | 6.31 | 158 | 794 | – | – | – |
| COC(=O)CN(C)C(=O)Cn1ccnc(NC2CCN(C/C(C)=C/c3ccccc3)CC2)c1=O [1-97] | 10 | 126 | 2510 | – | – | – |
| C/C(=C\c1ccccc1)CN1CCC(Nc2nccn(CC(=O)N(C)CCN(C)Cc3ccccc3)c2=O)CC1 [1-111] | 0.794 | 50.1 | 3980 | – | – | – |
| C/C(=C\c1ccccc1)CN1CCN(c2nccn(Cc3ccc(CN)cc3)c2=O)CC1 [8-1] | 12.6 | 39.8 | 1000 | – | – | – |
| CN(C)CCn1ccnc(NC2CCN(C/C=C/c3ccccc3)CC2)c1=O [16-1] | 158 | 1580 | > 10000 | – | – | – |
| C/C(=C\c1ccccc1)CN1CCC(Nc2nccn(CCCNS(C)(=O)=O)c2=O)CC1 [1-155] | 20 | 200 | 1260 | – | – | – |
| CC(=O)NCCNC(=O)Cn1ccnc(NC2CCN(C/C(C)=C/c3ccccc3)CC2)c1=O [1-114] | 12.6 | 200 | 3980 | – | – | – |
| C/C(=C\c1ccccc1)CN1CCC(Nc2nccn(CC(=O)N(CCO)Cc3ccccc3)c2=O)CC1 [1-67] | 3.16 | 100 | 1000 | – | – | – |
| C/C(=C\c1ccccc1)CN1CCC(Nc2nccn(-c3ccc(C#N)cc3)c2=O)CC1 [5-3] | 10 | 50.1 | 1000 | – | – | – |
| C/C(=C\c1ccccc1)CN1CCC(Nc2nccn(-c3ccc(CNC(=O)c4ccc(F)cc4)cc3)c2=O)CC1 [1-78] | – | – | – | 8.3 | 6.7 | 7.1 |
| C/C(=C\c1ccccc1)CN1CCC(N(C)c2nccn(Cc3ccc(CN(C)C)cc3)c2=O)CC1 [15-2] | 3.16 | 31.6 | 1000 | – | – | – |
| COC(=O)Cn1ccnc(NC2CCN(C/C(C)=C/c3ccccc3)CC2)c1=O [3-7] | 10 | 100 | 7940 | – | – | – |
| CC(=O)N1CCN(C(=O)Cn2ccnc(NC3CCN(C/C(C)=C/c4ccccc4)CC3)c2=O)CC1 [2-22] | 25.1 | 126 | > 10000 | – | – | – |

| Structure (SMILES) | IC50 (hα2C receptor) [nM] | IC50 (hα2A receptor) [nM] | IC50 (5HT-Transporter) [nM] | h-α2C pIC50 (hα2C receptor) | h-α2A pIC50 (hα2A receptor) | h-5HTT pIC50 (5HT-Transporter) |
| --- | --- | --- | --- | --- | --- | --- |
| C/C(=C\c1ccccc1)CN1CCC(Nc2nccn(CCN3CCOCC3)c2=O)CC1 [2-39] | 20 | 316 | 7940 | – | – | – |
| C/C(=C\c1ccccc1)CN1CCC(Nc2nccn(-c3ccc(N4CCCCC4)cc3)c2=O)CC1 [2-7] | 5.01 | 50.1 | 1260 | – | – | – |
| C/C(=C\c1ccccc1)CN1CCC(Nc2nccn(CC#CCN3C(=O)c4ccccc4C3=O)c2=O)CC1 [2-53] | 3.16 | 200 | 63.1 | – | – | – |
| C/C(=C\c1ccccc1)CN1CCC(Nc2nccn(CC(=O)NC(C)(C)Cc3ccccc3)c2=O)CC1 [1-62] | 3.16 | 126 | 1000 | – | – | – |
| C/C(=C\c1ccccc1)CN1CCC(Nc2nccn(-c3cccc(CN4CCCCC4)c3)c2=O)CC1 [2-9] | 0.2 | 0.631 | 200 | – | – | – |
| O=c1c(NC2CCN(C/C=C/c3ccccc3)CC2)nccn1Cc1ccccc1Br [16-15] | 158 | 631 | 794 | – | – | – |
| C/C(=C\c1ccccc1)CN1CCC(Nc2nccn(-c3cccc(N4CCOCC4)c3)c2=O)CC1 [2-42] | 3.16 | 7.94 | 794 | – | – | – |
| C/C(=C\c1ccccc1)CN1CCC(Nc2nccn(Cc3ccccc3)c2=O)CC1 [5-8] | 50.1 | 200 | 1580 | – | – | – |
| C/C(=C\c1ccccc1)CN1CCC(Nc2ncc[nH]c2=O)CC1 [7-1] | 31.6 | 100 | – | – | – | – |
| C/C(=C\c1ccccc1)CN1CCC(Nc2nccn(CCN3CCCCC3)c2=O)CC1 [2-4] | 3.16 | – | 2510 | – | – | – |
| C/C(=C\c1ccccc1)CN1CCC(Nc2nccn(CCCN)c2=O)CC1 [1-2] | – | 39.8 | – | – | – | – |
| C/C(=C\c1ccccc1)CN1CCC(Nc2nccn(-c3ccccn3)c2=O)CC1 [6-10] | 3.16 | 12.6 | – | – | – | – |
| C/C(=C\c1ccccc1)CN1CCC(Nc2nccn(-c3ccccn3)c2=O)CC1 [6-9] | 5.01 | 25.1 | – | – | – | – |
| C/C(=C\c1ccccc1)CN1CCC(Nc2nccn(CCCNCc3ccccc3)c2=O)CC1 [1-47] | – | 25.1 | 501 | – | – | – |
| COCCn1ccnc(NC2CCN(C/C(C)=C/c3ccccc3)CC2)c1=O [3-5] | 39.8 | 316 | – | – | – | – |
| CC(=O)Cn1ccnc(NC2CCN(C/C(C)=C/c3ccccc3)CC2)c1=O [7-7] | 12.6 | 50.1 | – | – | – | – |
| CN(C)CCCn1ccnc(NC2CCN(C/C=C/c3ccccc3)CC2)c1=O [16-2] | 63.1 | 501 | – | – | – | – |
| C/C(=C\c1ccccc1)CN1CCC(Nc2nccn(CCN3CCOCC3)c2=O)CC1 [2-40] | 25.1 | – | – | – | – | – |
| C/C(=C\c1ccccc1)CN1CCN(c2nccn(CCCN3CCCC3=O)c2=O)CC1 [9-1] | 251 | 2000 | – | – | – | – |
